From patent US20240316043A1, “BROMODOMAIN INHIBITORS FOR CANCER THERAPY” (University of Tennessee Research Foundation, priority 2023, published 2024)
Entries after “also recorded” stand apart in the source; their conditions may differ.

How the values were obtained:
[1] = system: intracranial GBM xenografts (MT330 cells); assay: Orthotopic GBM model, MT330 cells injected into brains of NSG mice; assay type: in vivo; conditions: for bioluminescent signal in the brain: combination with TMZ (10 mg/Kg), IV-255 or IV-275 (20 mg/Kg) IP 3 times per week, 3-4 weeks after treatment, versus either agent alone, FIG. 10
Protocol: MT330 cells (10^6) were injected into the brains of NSG female mice. After tumors were identified by BLI (˜10 days post-injection), mice were IP injected with TMZ (60 mg/Kg body weight) or IV-129 (10 mg/Kg) alone or in combination 3 times per week (5 mice per group) for 2 weeks. […] FIG. 5C Kaplan-Meier analysis of the survival data (5 mice/group) of the brain tumor-bearing mice was performed.
MT330 cells […] were injected into the brains of NSG female mice. After tumors were identified by BLI (˜10 days post-injection), mice were IP injected with TMZ (10 mg/Kg body weight), IV-255 or IV-275 (20 mg/Kg) alone or in combination 3 times per week (5 mice/group).
Luciferase-expressing MT330 cells were injected into the brains of immunocompromised NSG mice. Once tumors were identified by bioluminescence imaging (BLI) at ˜10 days after tumor cell injection, mice were subjected to intraperitoneal injection of TMZ or YH-IV-129 alone, or in combination. At 20 days after initiation of treatment, live animal imaging was performed on an IVIS Lumina instrument. […] The mean survival of control mice was 27 days after cell injection (FIG. 5C).
Luciferase-expressing MT330 cells were injected into the brains of immunocompromised NSG mice. Once tumors were identified by bioluminescence imaging (BLI) at ˜10 days after tumor cell injection, mice were subjected to intraperitoneal injection of TMZ or YH-IV-255 or YH-IV-275 alone, or in combination. […] This is compelling preliminary evidence that these two new compounds have potent anticancer activity in intracranial GBM xenografts when combined with standard-of-care TMZ chemotherapy and that these drugs cross the blood-brain barrier.

BRM bromodomain = molecular target: T1, BRM bromodomain (Homo sapiens, UniProt P51531); assay: Cellular thermal shift assay (CETSA), BRM bromodomain construct in MT330 cells; assay type: binding; parameters: binding to the BRM BRD: dose or concentration left out as unconfirmed; conditions: for thermostability of the BRM BRD: heating 44.5° C. to 55.6° C. for 5 min, immunoblot; for binding to the BRM BRD: CETSA, FIG. 6B
T1 construct: expressed in transfected cells; host or cells: MT330 glioblastoma cells
T1 sequence (P51531 1378-1506 limits assumed): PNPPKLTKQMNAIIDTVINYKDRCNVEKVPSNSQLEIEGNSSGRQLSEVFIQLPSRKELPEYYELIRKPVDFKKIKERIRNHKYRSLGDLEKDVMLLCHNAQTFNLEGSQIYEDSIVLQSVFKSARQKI
Protocol: (§1) For the CETSA, MT330 cells expressing the BRM (FIG. 6B), or BRG1 (FIG. 6C) the BRD construct were treated with bromodomain inhibitors […] and immunoblotted as indicated.
(§2) After heating over a temperature range from 44.5° C. to 55.6° C. for 5 min, MT330 cells were lysed and then immunoblotted for BRG1 or BRM.

T98G GBM cells = assay: IncuCyte live cell imaging proliferation assay; assay type: cell-based; conditions: TMZ (500 μM) plus bromodomain inhibitors (20 μM), FIG. 2
Protocol: T98G GBM cells were treated with TMZ (500 μM), the bromodomain inhibitors (20 μM), and cell proliferation was determined by Incucyte live cell assays using cellular confluence method. The data was normalized to the calculated cell confluence at day 0. Control cells were treated with vehicle (DMSO).
To further characterize the biological activity of selected bromodomain inhibitors, YH-IV-129, YH-IV-181 and YH-IV-191, IncuCyte live cell imaging proliferation assays were performed with the highly TMZ-resistant T98G GBM cell line.

BRG1 bromodomain = molecular target: T2, BRG1 bromodomain (Homo sapiens, UniProt P51532); assay: Cellular thermal shift assay (CETSA), BRG1 bromodomain construct in MT330 cells; assay type: binding; parameters: binding to the BRG1 BRD: dose or concentration left out as unconfirmed; conditions: for thermostability of the BRG1 BRD: 30 μM, heating 44.5° C. to 55.6° C. for 5 min, immunoblot; for binding to the BRG1 BRD: CETSA, FIG. 6C; for selectivity BRG1 versus BRM bromodomain: conclusion from CETSA and knockout cells
T2 construct: expressed in transfected cells; host or cells: MT330 glioblastoma cells
T2 sequence (P51532 1453-1564 limits assumed): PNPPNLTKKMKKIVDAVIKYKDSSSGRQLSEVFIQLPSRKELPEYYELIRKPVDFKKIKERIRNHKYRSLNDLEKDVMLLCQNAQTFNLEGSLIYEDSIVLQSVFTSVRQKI
Protocol: After heating over a temperature range from 44.5° C. to 55.6° C. for 5 min, the cells were lysed, placed on ice at 4° C. and then immunoblotted for BRG1 or actin.
as §1, §2

MT330 GBM cells [2] = assay: Cell death ELISA in MT330 GBM cells; assay type: cell-based; conditions: for enhancement of TMZ-induced cell death: 10 mM inhibitor in combination with 200 mM of TMZ, 72 hrs, FIG. 1; for enhancement of bleomycin-induced cell death: bleomycin (0.01 μM) and bromodomain inhibitors (10 μM); for enhancement of bleomycin-induced cell death / cell death, inhibitor alone: 72 hr, FIG. 9; for cell death, inhibitor alone: bromodomain inhibitors (10 μM) alone
Protocol: Control cells were treated with vehicle (DMSO). Cell death was determined at 72 hr after treatment by a cell death ELISA that quantifies histone-complexed DNA fragments. […]
Parental and BRG1 knockout MT330 cells were treated with bleomycin (0.01 μM) and bromodomain inhibitors […]. After 72 hr, cell death was determined by cell death ELISA.
The biological activity of bromodomain inhibitors was assessed for the ability to enhance TMZ-induced cell death. In brief, MT330 cells were treated with […] of bromodomain inhibitors alone, or in combination with […] of TMZ for 72 hrs, and GBM cell death was determined by a commercial ELISA.

LN229 GBM cells = assay: γH2Ax immunostaining after TMZ; assay type: cell-based; parameters: dose or concentration left out as unconfirmed; conditions: 24 hrs, FIG. 11
Protocol: After treatment for 24 hrs, cells were fixed and immunostained for gH2Ax. Analysis of immunostaining was performed on a laser confocal microscope.
As TMZ is DNA damaging agent, we tested the ability of various bromodomain inhibitors to enhance TMZ-induced DNA damage as evidence by immunostaining of GBM cells with γH2Ax and examination of the staining on a confocal microscope. γH2AX is the phosphorylated version of the histone variant H2Ax and is a highly specific and sensitive marker for monitoring DNA damage initiation and resolution. […] Similar results were obtained with MT330 GBM cells.

BRM knockout MT330 cells = assay: Cell death ELISA in BRM knockout MT330 cells; assay type: cell-based; conditions: TMZ (500 μM) and bromodomain inhibitors (10 μM), 72 hr, FIG. 7
Protocol: (§3) BRG1 and BRM knockout MT330 cells were treated with TMZ (500 μM) and bromodomain inhibitors (10 μM). After 72 hr, cell death was determined by a cell death ELISA.
(§4) To further characterize the specificity of YH-IV-255 for the BRG1 bromodomain, GBM cell lines were generated with either BRG1 or BRM knocked out by CRISPR/Cas9 gene editing.^14 These cells were isolated by puromycin selection and the knockout of the either subunit was validated by immunoblotting.

[3] = system: BRG1 knockout MT330 cells; assay: Cell death ELISA in BRG1 knockout MT330 cells; assay type: cell-based; conditions: 72 hr
Protocol: as §3
Parental and BRG1 knockout MT330 cells were treated with bleomycin (0.01 μM) and bromodomain inhibitors (10 μM). After 72 hr, cell death was determined by cell death ELISA.
as §4

MT330 GBM cells [4] = assay: Cell death ELISA in MT330 GBM cells; assay type: cell-based; conditions: for TMZ sensitivity (TMZ-induced cell death): TMZ (500 μM) and bromodomain inhibitors (10 μM), 24 hr, FIG. 6A
MT330 cells = assay: γH2Ax immunostaining after bleomycin; assay type: cell-based; conditions: bleomycin alone (0.5 and 2 μM), 1 hr, FIG. 8
Protocol: After 1 hr of bleomycin treatment cell death, cells were fixed and immunostained for γH2Ax. Analysis of immunostaining was performed on at least 1,000 cells on the Lionheart FX imaging system.
Bleomycin is a chemotherapeutic drug that is used to treat various cancers. […] Thus, the ability of bleomycin to induce DNA damage as evidence by immunostaining of MT330 cells and LN229 with γH2Ax was tested. Quantification of cell staining was determined on the Lionheart FX imaging station.

[5] = vehicle control band disappearing at 49.8° C., FIG. 3

Q: `Cn1nnc2c(C(N)=O)ncn2c1=O` [TMZ, temozolomide, reference compound] was tested. Which “mean survival, either agent alone” value ([1]; TMZ (60 mg/Kg) or IV-129 (10 mg/Kg) alone IP, control mice 27 days, FIG. 5C) did it give?
A: 35 days

Q: For `COc1ccc(N2C[C@H]3C[C@@H]2CN3C(=O)Nc2ccccc2)cc1` [YH-IV-181, (1R,4R)-5-(4-methoxyphenyl)-N-phenyl-2,5-diazabicyclo[2.2.1]heptane-2-carboxamide], which “thermostability of the BRM BRD” value (BRM bromodomain; FIG. 3) is on record?
A: significantly increased the thermostability

Q: And the “temperature at which the BRM BRD protein band is undetectable” value (BRM bromodomain; [5])?
A: 54.20 °C

Q: And the “sensitization to the antiproliferative action of TMZ” value (T98G GBM cells)?
A: potently sensitized T98G GBM cells to the antiproliferative action of TMZ

Q: And the “thermostability of the BRG1 BRD” value (BRG1 bromodomain; FIG. 3)?
A: significantly increased the thermostability

Q: What about the “temperature at which the BRG1 BRD protein band is undetectable” value (BRG1 bromodomain; [5]) of the same molecule?
A: 54.20 °C

Q: Which “thermostability of the BRM BRD” value (BRM bromodomain; FIG. 3) does the source give for `COc1ccc(N2C[C@H]3C[C@@H]2CN3C(=O)NC(C)(C)C)cc1` [YH-IV-185, (1R,4R)-N-(tert-butyl)-5-(4-methoxyphenyl)-2,5-diazabicyclo[2.2.1]heptane-2-carboxamide] here?
A: only moderately increased the thermostability

Q: And the “thermostability of the BRG1 BRD” value (BRG1 bromodomain; FIG. 3)?
A: only moderately increased the thermostability

Q: `COc1ccc(N2CCN(C(=O)OC(C)(C)C)CC2)cc1` [YH-IV-189, tert-butyl 4-(4-methoxyphenyl)piperazine-1-carboxylate] was tested. Which “thermostability of the BRM BRD” value (BRM bromodomain; FIG. 3) did it give?
A: only moderately increased the thermostability

Q: What about the “thermostability of the BRG1 BRD” value (BRG1 bromodomain; FIG. 3) of the same molecule?
A: only moderately increased the thermostability

Q: For `COc1ccc(N2C[C@H]3C[C@@H]2CN3C(=O)Nc2ccc(F)cc2)cc1` [YH-IV-211, (1R,4R)-N-(4-fluorophenyl)-5-(4-methoxyphenyl)-2,5-diazabicyclo[2.2.1]heptane-2-carboxamide], which “enhancement of TMZ-induced cell death” value (MT330 GBM cells [2]) is on record?
A: better efficacy than PFI-3

Q: Which “enhancement of TMZ-induced cell death” value (MT330 GBM cells [2]) does the source give for `COc1ccc(N2C[C@H]3C[C@@H]2CN3C(=O)Oc2ccccc2)cc1` [YH-IV-235, (1R,4R)-phenyl 5-(4-methoxyphenyl)-2,5-diazabicyclo[2.2.1]heptane-2-carboxylate] here?
A: better efficacy than PFI-3

Q: What does the source list for `COc1ccc(N2C[C@H]3C[C@@H]2CN3C(=O)Nc2ccc(F)c(F)c2)cc1` [YH-IV-255, (1R,4R)-N-(3,4-difluorophenyl)-5-(4-methoxyphenyl)-2,5-diazabicyclo[2.2.1]heptane-2-carboxamide]?
A: binding to the BRM BRD (BRM bromodomain): does not bind; bioluminescent signal in the brain [1]: decreased the bioluminescent signal in the brain; binding to the BRG1 BRD (BRG1 bromodomain): bind equivalently to the BRG1 BRD; selectivity BRG1 versus BRM bromodomain (BRG1 bromodomain): selective BRG1 bromodomain inhibitor; also recorded: selective inhibitor the BRG-1 bromodomain; selectivity BRG1 versus BRM bromodomain (BRG1 bromodomain; listed as IV-255): binds selectively to the BRG1 BRD; γH2Ax staining, inhibitor with TMZ (LN229 GBM cells): marked increase in γH2Ax staining; enhancement of TMZ-induced cell death (BRM knockout MT330 cells): very similar activity in enhancing the cell death inducing activity in BRM knockout GBM cells; also recorded: sensitized BRM knockout GBM cells; enhancement of TMZ-induced cell death ([3]; TMZ (500 μM) and bromodomain inhibitors (10 μM), FIG. 7): no such activity in BRG1 knockout GBM cells; also recorded: not BRG1 knockout cells; enhancement of bleomycin-induced cell death ([3]; bleomycin (0.01 μM) and bromodomain inhibitors (10 μM), FIG. 9): ablated in BRG1 knockout MT330 cells; TMZ sensitivity (TMZ-induced cell death) (MT330 GBM cells [4]): similarly increase the TMZ sensitivity of GBM cells; TMZ sensitivity (TMZ-induced cell death) (MT330 GBM cells [4]; listed as IV-255): potent sensitizer to TMZ-induced cell death; enhancement of TMZ-induced cell death (MT330 GBM cells [2]): better efficacy than PFI-3; also recorded: somewhat more bioactive than YH-IV-129; also recorded: markedly enhanced TMZ sensitivity of GBM cells in vitro as compared to PFI-3; enhancement of bleomycin-induced cell death (MT330 GBM cells [2]): sensitized GBM cells to bleomycin-induced cell death; cell death, inhibitor alone (MT330 GBM cells [2]): none of the bromodomain inhibitors (YH-IV-129, YH-IV-255 and YH-IV-275) alone had any death inducing activity

Q: With `COc1ccc(N2C[C@H]3C[C@@H]2CN3C(=O)Oc2ccc(F)c(F)c2)cc1` [YH-IV-275, (1R,4R)-3,4-difluorophenyl 5-(4-methoxyphenyl)-2,5-diazabicyclo [2.2.1]heptane-2-carboxylate] as the molecule, how does the “binding to the BRM BRD” value (BRM bromodomain) read?
A: binds well to the BRM BRD

Q: And the “bioluminescent signal in the brain” value [1]?
A: decreased the bioluminescent signal in the brain

Q: And the “binding to the BRG1 BRD” value (BRG1 bromodomain)?
A: bind equivalently to the BRG1 BRD

Q: What about the “selectivity BRG1 versus BRM bromodomain” value (BRG1 bromodomain) of the same molecule?
A: inhibitor of both BRG1 and BRM domains

Q: And the “γH2Ax staining, inhibitor with TMZ” value (LN229 GBM cells)?
A: marked increase in γH2Ax staining

Q: And the “enhancement of TMZ-induced cell death” value (BRM knockout MT330 cells)?
A: very similar activity in enhancing the cell death inducing activity in BRM knockout GBM cells

Q: And the “TMZ sensitivity (TMZ-induced cell death)” value (MT330 GBM cells [4])?
A: similarly increase the TMZ sensitivity of GBM cells

Q: What about the “enhancement of TMZ-induced cell death” value (MT330 GBM cells [2]) of the same molecule?
A: better efficacy than PFI-3; also recorded: somewhat more bioactive than YH-IV-129; also recorded: markedly enhanced TMZ sensitivity of GBM cells in vitro as compared to PFI-3

Q: And the “enhancement of bleomycin-induced cell death” value (MT330 GBM cells [2])?
A: sensitized GBM cells to bleomycin-induced cell death

Q: And the “cell death, inhibitor alone” value (MT330 GBM cells [2])?
A: none of the bromodomain inhibitors (YH-IV-129, YH-IV-255 and YH-IV-275) alone had any death inducing activity

Q: Which results are given for bleomycin [reference compound]?
A: γH2Ax staining, bleomycin alone (MT330 cells): dose dependent increase of γH2Ax staining; cell death, bleomycin alone (MT330 GBM cells [4]; low dose of bleomycin (0.01 µM), 72 hr, FIG. 9): induced low levels of cell death in MT330 cells
